Data published in paper PMC9785194, “New Dibenzo-α-pyrone Derivatives with α-Glucosidase Inhibitory Activities from the Marine-Derived Fungus Alternaria alternata” (Marine Drugs, 2022).

Legend:
α-glucosidase [1] = experiment: enzyme kinetics of α-glucosidase inhibition (Lineweaver-Burk and secondary plots); assay type: biochemical, Saccharomyces cerevisiae; conditions: for inhibition type against α-glucosidase: Lineweaver-Burk plots; for Ki: secondary plots, free enzyme, read-out: Ki (the inhibition constant of the free enzyme)
Protocol: (§1) Optical rotations were measured with an Anton Paar MCP 200 Automatic Polarimeter (Anton Paar, Graz, Austria). The UV data were recorded on a Thermo Genesys-10S UV/Vis spectrophotometer (Thermo Fisher Scientific, Waltham, MA, USA). ECD spectra were recorded with a JASCO J-815 spectropolarimeter (JASCO, Tsukuba, Japan) by using CH3OH as the solvent. Infrared spectra were obtained on a Nicolet IS5 FT-IR spectrophotometer (Thermo Fisher Scientific, Waltham, MA, USA). ^1H and ^13C NMR spectroscopic data were acquired with a Bruker Avance-500 spectrometer (Bruker, Bremen, Germany) using the solvent signals as a reference (CD3OD: δH 3.31/δC 49.00). HRESIMS data were obtained using an Agilent Accurate-Mass-Q-TOF LC/MS 6520 instrument (Agilent Technologies, Santa Clara, CA, USA) equipped with an electrospray ionization (ESI) source. Semi-preparative HPLC separation was performed on an Agilent 1260 instrument equipped with a variable-wavelength UV detector (Agilent Technologies Inc., CA, USA) using a YMC-pack ODS-A (10 × 250 mm, 5 μm, 2 mL/min, YMC CO., LTD., Kyoto, Japan).
The inhibition types of compounds 2 and 3 on α-glucosidase were determined by Lineweaver−Burk plots according to a previous report. The α-glucosidase inhibition kinetics were determined with selected concentrations of p-NPG (1.5625, 3.125, 6.25, 12.5 and 25 mM) under different concentrations of 2 and 3 (200, 400 and 800 μM) by keeping the enzyme concentration at 0.5 U/mL. The inhibition constant was determined by the second plots of the apparent Km/Vm or 1/Vm versus the concentration of the inhibitor.

α-glucosidase [2] = experiment: α-glucosidase inhibition assay (p-NPG substrate); assay type: biochemical, Saccharomyces cerevisiae; conditions: for IC50: 0.5 U/mL enzyme, p-NPG substrate, 37 °C; for α-glucosidase inhibition rate: at a concentration of 400 µM
Protocol: as §1
The α-glucosidase inhibitory activity assay was measured as described in previous reports. Briefly, 50 μL of 0.5 U/mL α-glucosidase and 25 μL of a series of solutions (0.1, 0.2, 0.4, 0.8 and 1.6 mM) of the test compounds 1−10 were added into 96-well plates. After incubation at 37 °C for 10 min, 25 μL of 25 mM p-NPG was added and further incubated at 37 °C for 10 min.

[3] = DPPH antioxidant scavenging assay; conditions: 37 °C, 30 min, absorbance 517 nm
Protocol: The DPPH antioxidant scavenging assay was performed according to the previously reported method. Briefly, 50 µL of DPPH (0.34 mmol/L in EtOH) and 50 µL of a series of solutions (12.5, 25, 50, 100, and 200 μM) of the test compounds 1−10 were mixed in the wells of 96-well plates. Each mixture was incubated at 37 °C for 30 min in a dark environment. The absorbance was read at 517 nm using a microplate reader, employing distilled water as a blank for baseline correction. All experiments were performed in triplicate, and ascorbic acid was used as a positive control.

**Q.** For `CC12CC(O)C(O)C=C1c1cc(O)cc(O)c1C(=O)O2` (stereo not drawn) [Compound 2, Alternolide B], which “inhibition type against α-glucosidase” value (α-glucosidase [1]) is on record?
**A.** mixed-type inhibitors

**Q.** What about the Ki (α-glucosidase [1]) of the same molecule?
**A.** 347 µM

**Q.** What about the IC50 (α-glucosidase [2]) of the same molecule?
**A.** 725.9 ± 4.75 µM

**Q.** What about the α-glucosidase inhibition rate (α-glucosidase [2]; 400 µM) of the same molecule?
**A.** 36.62%

**Q.** For `CC12CC(O)C(O)C=C1c1cc(O)cc(O)c1C(=O)O2` (stereo not drawn) [Compound 3, Alternolide C], which “inhibition type against α-glucosidase” value (α-glucosidase [1]) is on record?
**A.** mixed-type inhibitors

**Q.** What about the Ki (α-glucosidase [1]) of the same molecule?
**A.** 108 µM

**Q.** What about the IC50 (α-glucosidase [2]) of the same molecule?
**A.** 451 ± 6.95 µM

**Q.** What about the α-glucosidase inhibition rate (α-glucosidase [2]; 400 µM) of the same molecule?
**A.** 49.24%

**Q.** Which IC50 [3] does the source give for `COc1cc(O)c2c(=O)oc3c(O)c(O)cc(C)c3c2c1` [Compound 6, 3′-hydroxyalternariol 5-O-methyl ether] here?
**A.** 83.9 ± 4.14 µM

**Q.** Which IC50 (α-glucosidase [2]) does the source give for `COc1cc(O)c2c(=O)oc3cc(O)cc(CO)c3c2c1` [Compound 7, alternariol 1′-hydroxy-9-methyl ether] here?
**A.** 6.27 ± 0.68 µM

**Q.** What about the α-glucosidase inhibition rate (α-glucosidase [2]) of the same molecule?
**A.** 93.70%

**Q.** What about the IC50 [3] of the same molecule?
**A.** 23.6 ± 1.23 µM

**Q.** Which α-glucosidase inhibition rate (α-glucosidase [2]) does the source give for `COc1cc2oc(=O)c3c(O)cc(O)cc3c2cc1O` [Compound 8, altenuisol] here?
**A.** 37.29%

**Q.** Which α-glucosidase inhibition rate (α-glucosidase [2]) does the source give for `COc1cc(O)c2c(=O)oc3c(c2c1)[C@@H](C)CC3=O` [Compound 9, 1-deoxyrubralactone] here?
**A.** 53.95%

**Q.** With `O=C1O[C@H]([C@@H](O)CO)C(O)=C1O` [ascorbic acid, reference compound] as the molecule, how does the IC50 [3] read?
**A.** 23.7 ± 1.03 µM
